Counter-ions that a name gives are not always drawn. Like-named read-outs stand apart in the source and are kept apart here.
Key:
[1] = test system: human platelet rich plasma (PRP); assay: Inhibition of blood platelet aggregation in human platelet rich plasma (PRP), test of Professor Born, optical density; assay type: cell-based; conditions: 0.45 ml human PRP, two separate tests, two donors
Description: That the 7-fluoro prostacyclins are potent blood platelet anti-aggregating agents can be seen when the following compounds:
were tested against PGI2 for their blood platelet anti-aggregation properties by the standard test described by Professor Born in Nature, 194 927, (1962).
In this test, the ability of the above compounds to inhibit aggregation of blood platelets in 0.45 ml of human platelet rich plasma (PRP) was measured. Aggregation was induced by the addition of any one of arachidonic acid (AA), platelet activating factor (PAF) or collagen. PAF and its synthesis is disclosed by Hirth and Barner in Helv. Chim. Acta. Vol. 65; Fasc. 3, page 1059 (1982) [Compound 1-a on page 1061]. By titration of AA, collagen and PAF at various concentrations in 0.45 ml samples of PRP, the minimum amount of AA, collagen and PAF which produces maximum blood platelet aggregation in a given sample of human platelet rich plasma (PRP) was determined. This minimum amount was used when the compounds set forth above were tested for their ability to inhibit blood platelet aggregation in samples of PRP as described below.
In carrying out the tests, various concentrations of the test compound were added to separate samples of human platelet rich plasma (PRP). To each of these samples of PRP containing a specific concentration of one of the above test compounds, there was added the minimum amount of AA, PAF, or collagen calculated above. The controls are samples of PRP containing no test compound but only the minimum amount of AA, PAF, or collagen determined above. The percent aggregation of the various samples was determined by measuring the optical density of the samples and comparing them with the optical density of the controls. This determination was made two minutes after the maximum first phase response of PAF, AA or collagen. This determination was made with freshly prepared samples of test compounds. A second determination was made in the same manner with samples of PRP two hours after the addition of AA, PAF or collagen. The IC50, the dose at which the optical density of the samples decrease to a value which is fifty (50%) percent of the value of the control was determined by the method disclosed by Professor Born's article. The IC50 values for the minimum dose were made from concentration response curve. These IC50 's were determined in two separate tests using PRP from two separate donors. The results of the minimum dose of each of the test compounds which reduces fifty (50%) percent of the aggregation of the platelets produced by any one of AA, PAF, or collagen is set forth in the following Table: […]

[2] = test system: cyclic AMP in human platelet rich plasma (PRP); assay: Cyclic AMP production in human blood platelets (platelet rich plasma), protein binding method of Brown et al.; assay type: cell-based; conditions: 0.1 mM, percent increase in cyclic AMP compared to basal (vehicle alone), pH 7.4, 22 C, read-out: Cyclic AMP Production, o/o stimulative of Basal at 0.1 mM
Description: Cyclic AMP prevents aggregation of blood platelets. Through increasing cyclic AMP, the compounds of this invention prevent blood platelet aggregation. That the compounds of this invention increase cyclic AMP can be seen from the following test.
In this test, human platelet rich plasma (PRP) was prepared by centrifugation of blood treated with 0.38% by weight sodium citrate at 180×g (times gravity) for ten minutes. The PRP ([…] containing approximately 2×10^7 platelets) is incubated for two minutes at 22 C, with and without the test compound, in a Tris-HCl buffer for ten minutes pH 7.4 containing 5.5 mM HCl, 1 mM Mg SO4, 5 mM Na2 H PO4, 120 mM NaCl, and 5.5 mM glucose in a fluid volume of […]. The reaction was terminated by placing the samples in boiling water for 3 minutes. The boiled extract was assayed for cyclic AMP by the protein binding method of Brown et al. (Biochemical Journal 121:561-562, 1971). The activity of this test compound at 0.1 mM is measured as the percent increase in cyclic AMP production compared to base 1 (vehicle alone) production.

[3] = Platelet, aggregation induced by minimum amount of arachidonic acid (AA), read-out: Aggregation IC50, AA
[4] = Platelet, aggregation induced by minimum amount of collagen, read-out: Aggregation IC50, Collagen
[5] = aggregation induced by minimum amount of platelet activating factor (PAF), read-out: Aggregation IC50, PAF

Compound	IC50 [1, 3]	IC50 [1, 4]	IC50 [1, 5]	activation at 100 µM [2]
CCCCC[C@H](O)/C=C/[C@@H]1[C@H]2C/C(=C/CCCC(=O)O)O[C@H]2C[C@H]1O [PGI2, reference compound]	0.45 nM	2 nM	0.15 nM	–
CCCCC[C@H](O)CC[C@@H]1[C@@H]2[C@H](C[C@H]1O)O/C(=C\CCCC(=O)O)[C@H]2F [Compound A, (5Z,7beta,9alpha,11alpha,15S)-6,9-epoxy-7-fluoro-11,15-dihydroxy-prost-5-en-1-oic acid monosodium salt]	23 nM	–	15 nM	998%
CCCC[C@H](F)[C@H](O)CC[C@@H]1[C@@H]2[C@H](C[C@H]1O)O/C(=C\CCCC(=O)O)[C@H]2F [Compound B, (5Z,7beta,9alpha,11alpha,15R,16S)-6,9-epoxy-7,16-difluoro-11,15-dihydroxy-prost-5-en-1-oic acid monosodium salt]	20 nM	6 nM	6 nM	–

From US4634782A, “7-fluoro-dihydro PGI compounds” (Hoffmann-La Roche Inc., priority 1985, dated 1987)
